Assay results: patent publication US9629816B2, “Small molecule therapeutic compounds targeting thioesterase deficiency disorders and methods of using the same” (The United States of America, as represented by the …, priority 2011, dated 2017)

Tests used:
PPT1-KO mice [1] = test: TEM analysis of GRODs in brain cells of PPT1-KO mice; format: in vivo, mouse; settings: PPT1-KO mice treated from 3 to 6 months of age, 1 mM in drinking water (FIG. 12)
Method: All animal experiments were performed according to the institutional guidelines after an animal protocol was approved by the Animal Care and Use Committee of the National Institute of Child Health and Development, National Institutes of Health. PPT1-KO mice (a gift from Dr. S. L. Hofmann, University of Texas Southwestern Medical Center at Dallas, Dallas, Tex., USA) were generated by targeted disruption of the last exon in the PPT1 gene in embryonic stem (ES) cells. These mice were subsequently backcrossed for 10 generations with wild type C57BL/6 mice in order to obtain congenic C57 background and a breeding pair was provided by Dr. Mark Sands to start the inventors' colony. Animals were housed and maintained in a pathogen-free facility. Three-month old PPT-KO mice were given NtBuHA in their drinking water (1 mM NtBuHA and 1 mM NaCl).
Cortical tissue sections were prepared from wild-type mice and untreated- as well as NtBuHA-treated PPT1-KO littermates. Cortical tissues (approximately 1 mm^3) were dissected from those animals, fixed in 2.5% glutaradlehyde in 0.1M sodium cacodylate buffer, pH 7.4 followed by three washing in 0.1 M sodium cacodylate buffer at room temperature. […]

PPT1-KO mice [2] = test: Western blot of caspase-9 and cleaved PARP-1 in cortical tissue homogenates of PPT1-KO mice; format: in vivo, mouse; settings: cortical tissue homogenates (FIG. 17)
Method: (§1) Western blot analysis was performed as using standard methodology. Briefly 30 μg of protein was resolved in 4-12% Bis tris gel (Invitrogen) and electro-transferred in PVDF membrane. The membranes were blocked with 5% non fat dried milk for 1 hour at room temperature and were then probed overnight with primary antibody at 4 C. After washing the blots were incubated with horseradish peroxidase conjugated secondary antibody (Santacruz Biotechnology) for 1 hour at room temperature and developed using enhanced chemiluminescences detection reagents (Pierce). Primary antibodies used in this study were caspase-3, caspase-9 (cell signaling) SOD2, catalase, β-Actin (US Biologicals).
It has been reported that postmortem brain tissues from INCL patients as well as those from PPT1-KO mice manifest high levels of oxidative stress, which induces neuronal apoptosis contributing to neuropathology. […] Accordingly, a terminal deoxynucleotidyl transferase dUTP nick end labeling (TUNEL) assay was performed using cortical tissue sections from wild-type, untreated PPT1-KO and NtBuHA-treated PPT1-KO mice to determine the level of apoptosis. […] Quantitative analysis of the NeuN-positive cells in brain tissues from wild-type, untreated and NtBuHA-treated PPT1-KO mice (FIG. 18D) confirmed the visual assessment.

INCL fibroblasts = test: TEM analysis of GRODs in cultured INCL fibroblasts; format: cell-based, human; settings: 250 μM for 3 weeks vs untreated fibroblasts (FIG. 10)
Method: (§2) Transmission electron microsocopy (TEM) of INCL lymphoblasts and fibroblasts was performed. Briefly, cells were first treated with 250 μM NtBuHA for 3 weeks. Medium was replaced with fresh 250 μM of NtBuHA at every 72 hours. After treatment, cells were fixed with 2.5% glutaraldehyde in sodium phosphate buffer, washed three times with Millonig's phosphate buffer and stained with 2.5% uranyl acetate. Ultra-thin sections were then prepared using AO Reichert Ultracut ultramicrotome, stained with lead citrate and examined by using Zeiss EM10 CA.
(§3) Accordingly, untreated- and NtBuHA-treated cultured INCL lymphoblasts were analyzed using TEM.

PPT1-KO mice [3] = test: Open field test, exploratory behavior of PPT1-KO mice; format: in vivo, mouse; settings: 6-month and 8-month old PPT1-KO mice (FIG. 19E-F)
Text: Since NtBuHA functionally mimics PPT1, the inventors tested 6-month and 8-month old wild-type, untreated- and NtBuHA-treated PPT1-KO mice for motor coordination and exploratory behavior. The Rotarod Performance Test, which measures parameters such as riding time (seconds) and/or endurance was used to measure motor coordination. The open field test was utilized to evaluate the exploratory behavior.

PPT1-KO mice [4] = test: Western blot of ER-stress and oxidative-stress markers in brain lysates of PPT1-KO mice; format: in vivo, mouse
Method: as §1
It has previously reported that endoplasmic reticulum (ER-) and oxidative-stress contribute to neuropathology in INCL patients. […] Therefore, the inventors sought to determine whether NtBuHA-treatment of PPT1-KO mice ameliorate the ER- and oxidative-stress in brain tissues of these mice. Accordingly, the levels of ER-stress markers Grp-78, Grp-94 and ATF6 were determined by Western blot analysis of brain lysates. […] Western blot analysis of brain lysates from NtBuHA-treated and untreated PPT1-KO mice was also performed to determine the levels of superoxide dismutase-2 (SOD2) and catalase, which increases with elevated oxidative-stress.

INCL lymphoblasts = test: TEM analysis of GRODs in cultured INCL lymphoblasts; format: cell-based, human
Method: as §2, §3
For a therapeutic agent to be effective for INCL it must not only mediate depletion of ceroid by cleaving thioester linkage in S-acylated proteins but it must also prevent re-accumulation of ceroid. […] Some of these cultures were washed with PBS and then cultured for an additional 3 weeks in medium without NtBuHA before being analyzed by TEM.

Q: With CC(C)(C)NO [NtBuHA, N-(tert-Butyl)hydroxylamine] as the molecule, how does the “GRODs in brain cells” value (PPT1-KO mice [1]) read?
A: markedly reduced number of GRODs

Q: What about the “caspase-9 and cleaved PARP-1 level” value (PPT1-KO mice [2]) of the same molecule?
A: marked reduction in caspase-9 and cleaved PARP-1 level

Q: And the “GRODs in INCL fibroblasts” value (INCL fibroblasts)?
A: significantly lower number of GRODs with markedly reduced size and density

Q: And the “exploratory behavior (open field)” value (PPT1-KO mice [3])?
A: retained near normal motor function (FIG. 19A-D) as well as exploratory behavior

Q: What about the “levels of SOD2 and catalase” value (PPT1-KO mice [4]; brain lysates vs untreated PPT1-KO mice (FIG. 14B)) of the same molecule?
A: significantly reduced the levels of both SOD2 and catalase

Q: What about the “levels of ER-stress markers Grp-78, Grp-94 and ATF6” value (PPT1-KO mice [4]; brain tissues (FIG. 14A)) of the same molecule?
A: levels of all three ER-stress markers were reduced

Q: What about the “GRODs in INCL lymphoblasts” value (INCL lymphoblasts; 250 μM for 3 weeks vs untreated controls (FIG. 9A-C)) of the same molecule?
A: either no GRODs, FIG. 9B, or a substantially reduced number of GRODs that were considerably smaller in size

Q: What about the “GRODs after withdrawal of treatment” value (INCL lymphoblasts; 3 weeks treatment, then additional 3 weeks in medium without NtBuHA (FIG. 9D, 11)) of the same molecule?
A: withdrawal from the culture medium caused reaccumulation
